Test results taken from PubChem BioAssay (NCI).
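At the GI50, growth is halved. Definition used: TGI = concentration required for complete inhibition of growth.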

Key:
Assay in all cases: NCI tumour cell line growth inhibition, 384-well format
HT29 colon = test system: HT29 colon
MDA-MB-468 breast = test system: MDA-MB-468 breast
NCI-H226 lung = test system: NCI-H226 lung
SW-620 colon = test system: SW-620 colon
SN12C renal = test system: SN12C renal
PC-3 prostate = test system: PC-3 prostate
OVCAR-3 ovarian = test system: OVCAR-3 ovarian
DU-145 prostate = test system: DU-145 prostate
SNB-19 CNS = test system: SNB-19 CNS
HL-60(TB) leukemia = test system: HL-60(TB) leukemia
TK-10 renal = test system: TK-10 renal
HCT-116 colon = test system: HCT-116 colon
CCRF-CEM leukemia = test system: CCRF-CEM leukemia
M14 melanoma = test system: M14 melanoma
UACC-257 melanoma = test system: UACC-257 melanoma
UO-31 renal = test system: UO-31 renal
MDA-MB-231 breast = test system: MDA-MB-231 breast
NCI-H23 lung = test system: NCI-H23 lung
MDA-MB-435 melanoma = test system: MDA-MB-435 melanoma
SF-268 CNS = test system: SF-268 CNS
KM12 colon = test system: KM12 colon
RPMI-8226 leukemia = test system: RPMI-8226 leukemia
CAKI-1 renal = test system: CAKI-1 renal
MALME-3M melanoma = test system: MALME-3M melanoma
OVCAR-5 ovarian = test system: OVCAR-5 ovarian
HCC-2998 colon = test system: HCC-2998 colon
HOP-92 NSCLC = test system: HOP-92 NSCLC
A498 renal = test system: A498 renal
SK-OV-3 ovarian = test system: SK-OV-3 ovarian
OVCAR-8 ovarian = test system: OVCAR-8 ovarian
SK-MEL-28 melanoma = test system: SK-MEL-28 melanoma
IGROV1 ovarian = test system: IGROV1 ovarian
MOLT-4 leukemia = test system: MOLT-4 leukemia
A549 NSCLC = test system: A549 NSCLC
HCT-15 colon = test system: HCT-15 colon
HOP-62 NSCLC = test system: HOP-62 NSCLC
SK-MEL-5 melanoma = test system: SK-MEL-5 melanoma
LOX IMVI melanoma = test system: LOX IMVI melanoma
BT-549 breast = test system: BT-549 breast
SF-539 CNS = test system: SF-539 CNS
NCI/ADR-RES ovarian = test system: NCI/ADR-RES ovarian
NCI-H322M lung = test system: NCI-H322M lung
SF-295 CNS = test system: SF-295 CNS
NCI-H522 lung = test system: NCI-H522 lung
K-562 leukemia = test system: K-562 leukemia
ACHN renal = test system: ACHN renal
SR leukemia = test system: SR leukemia
NCI-H460 NSCLC = test system: NCI-H460 NSCLC
COLO 205 colon = test system: COLO 205 colon
EKVX NSCLC = test system: EKVX NSCLC
HS 578T breast = test system: HS 578T breast
SK-MEL-2 melanoma = test system: SK-MEL-2 melanoma
U251 glioblastoma = test system: U251 glioblastoma
MCF7 breast = test system: MCF7 breast
RXF 393 renal = test system: RXF 393 renal
OVCAR-4 ovarian = test system: OVCAR-4 ovarian
786-0 renal = test system: 786-0 renal
UACC-62 melanoma = test system: UACC-62 melanoma
T-47D breast = test system: T-47D breast
SNB-75 CNS = test system: SNB-75 CNS

## CS(=O)(=O)c1ccc(-c2cnc(NCc3ccco3)n3cnnc23)cc1
HT29 colon
  GI50: 61.3 µM
  TGI: > 100 µM
MDA-MB-468 breast
  GI50: 17.3 µM
  TGI: 49.3 µM
NCI-H226 lung
  GI50: > 100 µM
  TGI: > 100 µM
SW-620 colon
  GI50: > 100 µM
  TGI: > 100 µM
SN12C renal
  GI50: > 100 µM
  TGI: > 100 µM
PC-3 prostate
  GI50: > 100 µM
  TGI: > 100 µM
OVCAR-3 ovarian
  GI50: > 100 µM
  TGI: > 100 µM
DU-145 prostate
  GI50: > 100 µM
  TGI: > 100 µM
SNB-19 CNS
  GI50: > 100 µM
  TGI: > 100 µM
HL-60(TB) leukemia
  GI50: 72.2 µM
  TGI: > 100 µM
TK-10 renal
  GI50: > 100 µM
  TGI: > 100 µM
HCT-116 colon
  GI50: > 100 µM
  TGI: > 100 µM
CCRF-CEM leukemia
  GI50: > 85.5 µM
  TGI: > 100 µM
M14 melanoma
  GI50: 29.6 µM
  TGI: > 100 µM
UACC-257 melanoma
  GI50: 52.1 µM
  TGI: > 100 µM
UO-31 renal
  GI50: > 100 µM
  TGI: > 100 µM
MDA-MB-231 breast
  GI50: > 100 µM
  TGI: > 100 µM
NCI-H23 lung
  GI50: > 100 µM
  TGI: > 100 µM
MDA-MB-435 melanoma
  GI50: > 87.3 µM
  TGI: > 100 µM
SF-268 CNS
  GI50: > 100 µM
  TGI: > 100 µM
KM12 colon
  GI50: > 100 µM
  TGI: > 100 µM
RPMI-8226 leukemia
  GI50: 6.1 µM
  TGI: > 33.7 µM
CAKI-1 renal
  GI50: > 100 µM
  TGI: > 100 µM
MALME-3M melanoma
  GI50: 16.9 µM
  TGI: 45.3 µM
OVCAR-5 ovarian
  GI50: > 100 µM
  TGI: > 100 µM
HCC-2998 colon
  GI50: > 100 µM
  TGI: > 100 µM
HOP-92 NSCLC
  GI50: > 55.1 µM
  TGI: > 100 µM
A498 renal
  GI50: > 100 µM
  TGI: > 100 µM
SK-OV-3 ovarian
  GI50: > 100 µM
  TGI: > 100 µM
OVCAR-8 ovarian
  GI50: > 100 µM
  TGI: > 100 µM
SK-MEL-28 melanoma
  GI50: 30.3 µM
  TGI: > 100 µM
IGROV1 ovarian
  GI50: > 100 µM
  TGI: > 100 µM
MOLT-4 leukemia
  GI50: 49 µM
  TGI: > 100 µM
A549 NSCLC
  GI50: > 100 µM
  TGI: > 100 µM
HCT-15 colon
  GI50: > 100 µM
  TGI: > 100 µM
HOP-62 NSCLC
  GI50: > 100 µM
  TGI: > 100 µM
SK-MEL-5 melanoma
  GI50: 37.2 µM
  TGI: > 100 µM
LOX IMVI melanoma
  GI50: 52.8 µM
  TGI: > 100 µM
BT-549 breast
  GI50: > 100 µM
  TGI: > 100 µM
SF-539 CNS
  GI50: > 100 µM
  TGI: > 100 µM
NCI/ADR-RES ovarian
  GI50: > 100 µM
  TGI: > 100 µM
NCI-H322M lung
  GI50: > 100 µM
  TGI: > 100 µM
SF-295 CNS
  GI50: > 100 µM
  TGI: > 100 µM
NCI-H522 lung
  GI50: > 100 µM
  TGI: > 100 µM
K-562 leukemia
  GI50: > 95.2 µM
  TGI: > 100 µM
ACHN renal
  GI50: > 100 µM
  TGI: > 100 µM
SR leukemia
  GI50: > 100 µM
  TGI: > 100 µM
NCI-H460 NSCLC
  GI50: > 100 µM
  TGI: > 100 µM
COLO 205 colon
  GI50: 35.8 µM
  TGI: > 100 µM
EKVX NSCLC
  GI50: > 100 µM
  TGI: > 100 µM
HS 578T breast
  GI50: > 100 µM
  TGI: > 100 µM
SK-MEL-2 melanoma
  GI50: > 100 µM
  TGI: > 100 µM
U251 glioblastoma
  GI50: > 100 µM
  TGI: > 100 µM
MCF7 breast
  GI50: > 100 µM
  TGI: > 100 µM
RXF 393 renal
  GI50: > 76.7 µM
  TGI: > 100 µM
OVCAR-4 ovarian
  GI50: > 100 µM
  TGI: > 100 µM
786-0 renal
  GI50: > 100 µM
  TGI: > 100 µM
UACC-62 melanoma
  GI50: 27.1 µM
  TGI: > 100 µM
T-47D breast
  GI50: 66.3 µM
  TGI: > 100 µM
SNB-75 CNS
  GI50: > 100 µM
  TGI: > 100 µM
